Experimental data from ChEMBL document CHEMBL1201862, “PubChem BioAssay data set” (2004).
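Where inhibition never reached the appropriate level, the endpoint shown equals the highest concentration tested. Otherwise, values were interpolated linearly from a five-concentration, 48-hour dose response in 96-well plates. Abbreviation: GI50, concentration required for 50% inhibition of growth.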 Calls of active or inactive are those of the source. Rule as the data show it: active = GI50 up to about 1.1 µM and inactive = higher.

Key:
Assay in all cases: NCI anticancer screen, dose series, 48 h
NCI-H226 = test system: NCI-H226
EKVX = test system: EKVX
SK-MEL-2 = test system: SK-MEL-2
TK-10 = test system: TK-10
SK-MEL-28 = test system: SK-MEL-28
MDA-N = test system: MDA-N
T47D = test system: T47D
U-251 = test system: U-251
M14 = test system: M14
HOP-92 = test system: HOP-92
SNB-75 = test system: SNB-75
A498 = test system: A498
SK-MEL-5 = test system: SK-MEL-5
PC-3 = test system: PC-3
HT-29 = test system: HT-29
UACC-257 = test system: UACC-257
NCI-H522 = test system: NCI-H522
HCT-116 = test system: HCT-116
SR = test system: SR
K562 = test system: K562
CCRF-CEM = test system: CCRF-CEM
MCF7 = test system: MCF7
RXF 393 = test system: RXF 393
SW-620 = test system: SW-620
Malme-3M = test system: Malme-3M
SF-268 = test system: SF-268
NCI-H23 = test system: NCI-H23
MDA-MB-231 = test system: MDA-MB-231
A549 = test system: A549
OVCAR-8 = test system: OVCAR-8
NCI/ADR-RES = test system: NCI/ADR-RES
HOP-62 = test system: HOP-62
BT-549 = test system: BT-549
MDA-MB-435 = test system: MDA-MB-435
OVCAR-5 = test system: OVCAR-5
SNB-19 = test system: SNB-19
SF-539 = test system: SF-539
RPMI-8226 = test system: RPMI-8226
DU-145 = test system: DU-145
UO-31 = test system: UO-31
SN12C = test system: SN12C
NCI-H460 = test system: NCI-H460
HL-60 = test system: HL-60
KM12 = test system: KM12
OVCAR-3 = test system: OVCAR-3
SK-OV-3 = test system: SK-OV-3
Hs-578T = test system: Hs-578T
LOX IMVI = test system: LOX IMVI
786-0 = test system: 786-0
MOLT-4 = test system: MOLT-4
UACC-62 = test system: UACC-62
HCT-15 = test system: HCT-15
SF-295 = test system: SF-295
IGROV-1 = test system: IGROV-1
ACHN = test system: ACHN
HCC 2998 = test system: HCC 2998
COLO 205 = test system: COLO 205
OVCAR-4 = test system: OVCAR-4
CAKI-1 = test system: CAKI-1

Measured: GI50

CC(C)(C)NC(=O)[C@H]1CC[C@H]2[C@@H]3CC=C4NC(=O)CC[C@]4(C)[C@H]3CC[C@]12C
> 100 µM: HCT-15
inactive: NCI-H226 > 100 µM | EKVX > 100 µM | SK-MEL-2 > 100 µM | TK-10 46.8 µM | SK-MEL-28 > 100 µM | MDA-N > 100 µM | T47D > 100 µM | U-251 > 100 µM | M14 > 100 µM | HOP-92 97.9 µM | SNB-75 22.6 µM | A498 > 100 µM | SK-MEL-5 > 100 µM | PC-3 > 100 µM | HT-29 > 100 µM | UACC-257 69.3 µM | NCI-H522 36.4 µM | HCT-116 > 100 µM | SR > 100 µM | K562 > 100 µM | CCRF-CEM > 100 µM | MCF7 32.4 µM | RXF 393 > 100 µM | SW-620 > 100 µM | Malme-3M > 100 µM | SF-268 54.6 µM | NCI-H23 52 µM | MDA-MB-231 29.3 µM | A549 > 100 µM | OVCAR-8 70.3 µM | NCI/ADR-RES 64.9 µM | HOP-62 > 100 µM | BT-549 > 100 µM | MDA-MB-435 > 100 µM | OVCAR-5 > 100 µM | SNB-19 > 100 µM | SF-539 > 100 µM | RPMI-8226 > 100 µM | DU-145 > 100 µM | UO-31 > 100 µM | SN12C > 100 µM | NCI-H460 > 100 µM | HL-60 > 100 µM | KM12 > 100 µM | OVCAR-3 > 100 µM | SK-OV-3 > 100 µM | Hs-578T 50.9 µM | LOX IMVI > 100 µM | 786-0 90.2 µM | MOLT-4 > 100 µM | UACC-62 > 100 µM | SF-295 > 100 µM | IGROV-1 > 100 µM | ACHN > 100 µM | HCC 2998 > 100 µM | COLO 205 > 100 µM | OVCAR-4 50.1 µM

CC[C@@H](/C=C\CCC1(C[C@H](O)CCC=C(C)C)OCCO1)O[Si](C(C)C)(C(C)C)C(C)C
inactive: NCI-H226 19.6 µM | EKVX 28.8 µM | SK-MEL-2 16.3 µM | TK-10 20.6 µM | SK-MEL-28 26.7 µM | MDA-N 33.5 µM | T47D 19.1 µM | U-251 17.3 µM | M14 26.5 µM | HOP-92 28.5 µM | SNB-75 29.5 µM | A498 32.8 µM | SK-MEL-5 17.8 µM | PC-3 29.8 µM | HT-29 25 µM | UACC-257 22.5 µM | NCI-H522 20.2 µM | HCT-116 17 µM | SR 21.2 µM | K562 20 µM | CCRF-CEM 29 µM | MCF7 17.3 µM | RXF 393 17.3 µM | SW-620 26.4 µM | SF-268 21.6 µM | NCI-H23 26.9 µM | MDA-MB-231 17.3 µM | A549 33.2 µM | OVCAR-8 19.9 µM | NCI/ADR-RES 22.4 µM | HOP-62 34.3 µM | BT-549 30.5 µM | MDA-MB-435 35 µM | OVCAR-5 22 µM | SNB-19 18.9 µM | SF-539 18.5 µM | RPMI-8226 18.4 µM | DU-145 30 µM | UO-31 19.2 µM | SN12C 18 µM | NCI-H460 21.9 µM | HL-60 16.7 µM | KM12 37.1 µM | OVCAR-3 19 µM | SK-OV-3 21.8 µM | Hs-578T 37.3 µM | CAKI-1 28.6 µM | LOX IMVI 20.4 µM | 786-0 17.5 µM | MOLT-4 19.3 µM | UACC-62 22.6 µM | SF-295 20.2 µM | IGROV-1 20.9 µM | ACHN 18.3 µM | HCC 2998 16.4 µM | COLO 205 19.8 µM | OVCAR-4 50.8 µM
20.1 µM: HCT-15
